{"source": "paper PMC8366453", "about": "“Efficacy of RyR2 inhibitor EL20 in induced pluripotent stem cell‐derived cardiomyocytes from a patient with catecholaminergic polymorphic ventricular tachycardia” (Journal of Cellular and Molecular Medicine, 2021)", "molecular_target": "cardiac ryanodine receptor type‐2 (RyR2) (Homo sapiens, UniProt Q92736, R176Q)", "sequence (Q92736 whole entry R176Q)": "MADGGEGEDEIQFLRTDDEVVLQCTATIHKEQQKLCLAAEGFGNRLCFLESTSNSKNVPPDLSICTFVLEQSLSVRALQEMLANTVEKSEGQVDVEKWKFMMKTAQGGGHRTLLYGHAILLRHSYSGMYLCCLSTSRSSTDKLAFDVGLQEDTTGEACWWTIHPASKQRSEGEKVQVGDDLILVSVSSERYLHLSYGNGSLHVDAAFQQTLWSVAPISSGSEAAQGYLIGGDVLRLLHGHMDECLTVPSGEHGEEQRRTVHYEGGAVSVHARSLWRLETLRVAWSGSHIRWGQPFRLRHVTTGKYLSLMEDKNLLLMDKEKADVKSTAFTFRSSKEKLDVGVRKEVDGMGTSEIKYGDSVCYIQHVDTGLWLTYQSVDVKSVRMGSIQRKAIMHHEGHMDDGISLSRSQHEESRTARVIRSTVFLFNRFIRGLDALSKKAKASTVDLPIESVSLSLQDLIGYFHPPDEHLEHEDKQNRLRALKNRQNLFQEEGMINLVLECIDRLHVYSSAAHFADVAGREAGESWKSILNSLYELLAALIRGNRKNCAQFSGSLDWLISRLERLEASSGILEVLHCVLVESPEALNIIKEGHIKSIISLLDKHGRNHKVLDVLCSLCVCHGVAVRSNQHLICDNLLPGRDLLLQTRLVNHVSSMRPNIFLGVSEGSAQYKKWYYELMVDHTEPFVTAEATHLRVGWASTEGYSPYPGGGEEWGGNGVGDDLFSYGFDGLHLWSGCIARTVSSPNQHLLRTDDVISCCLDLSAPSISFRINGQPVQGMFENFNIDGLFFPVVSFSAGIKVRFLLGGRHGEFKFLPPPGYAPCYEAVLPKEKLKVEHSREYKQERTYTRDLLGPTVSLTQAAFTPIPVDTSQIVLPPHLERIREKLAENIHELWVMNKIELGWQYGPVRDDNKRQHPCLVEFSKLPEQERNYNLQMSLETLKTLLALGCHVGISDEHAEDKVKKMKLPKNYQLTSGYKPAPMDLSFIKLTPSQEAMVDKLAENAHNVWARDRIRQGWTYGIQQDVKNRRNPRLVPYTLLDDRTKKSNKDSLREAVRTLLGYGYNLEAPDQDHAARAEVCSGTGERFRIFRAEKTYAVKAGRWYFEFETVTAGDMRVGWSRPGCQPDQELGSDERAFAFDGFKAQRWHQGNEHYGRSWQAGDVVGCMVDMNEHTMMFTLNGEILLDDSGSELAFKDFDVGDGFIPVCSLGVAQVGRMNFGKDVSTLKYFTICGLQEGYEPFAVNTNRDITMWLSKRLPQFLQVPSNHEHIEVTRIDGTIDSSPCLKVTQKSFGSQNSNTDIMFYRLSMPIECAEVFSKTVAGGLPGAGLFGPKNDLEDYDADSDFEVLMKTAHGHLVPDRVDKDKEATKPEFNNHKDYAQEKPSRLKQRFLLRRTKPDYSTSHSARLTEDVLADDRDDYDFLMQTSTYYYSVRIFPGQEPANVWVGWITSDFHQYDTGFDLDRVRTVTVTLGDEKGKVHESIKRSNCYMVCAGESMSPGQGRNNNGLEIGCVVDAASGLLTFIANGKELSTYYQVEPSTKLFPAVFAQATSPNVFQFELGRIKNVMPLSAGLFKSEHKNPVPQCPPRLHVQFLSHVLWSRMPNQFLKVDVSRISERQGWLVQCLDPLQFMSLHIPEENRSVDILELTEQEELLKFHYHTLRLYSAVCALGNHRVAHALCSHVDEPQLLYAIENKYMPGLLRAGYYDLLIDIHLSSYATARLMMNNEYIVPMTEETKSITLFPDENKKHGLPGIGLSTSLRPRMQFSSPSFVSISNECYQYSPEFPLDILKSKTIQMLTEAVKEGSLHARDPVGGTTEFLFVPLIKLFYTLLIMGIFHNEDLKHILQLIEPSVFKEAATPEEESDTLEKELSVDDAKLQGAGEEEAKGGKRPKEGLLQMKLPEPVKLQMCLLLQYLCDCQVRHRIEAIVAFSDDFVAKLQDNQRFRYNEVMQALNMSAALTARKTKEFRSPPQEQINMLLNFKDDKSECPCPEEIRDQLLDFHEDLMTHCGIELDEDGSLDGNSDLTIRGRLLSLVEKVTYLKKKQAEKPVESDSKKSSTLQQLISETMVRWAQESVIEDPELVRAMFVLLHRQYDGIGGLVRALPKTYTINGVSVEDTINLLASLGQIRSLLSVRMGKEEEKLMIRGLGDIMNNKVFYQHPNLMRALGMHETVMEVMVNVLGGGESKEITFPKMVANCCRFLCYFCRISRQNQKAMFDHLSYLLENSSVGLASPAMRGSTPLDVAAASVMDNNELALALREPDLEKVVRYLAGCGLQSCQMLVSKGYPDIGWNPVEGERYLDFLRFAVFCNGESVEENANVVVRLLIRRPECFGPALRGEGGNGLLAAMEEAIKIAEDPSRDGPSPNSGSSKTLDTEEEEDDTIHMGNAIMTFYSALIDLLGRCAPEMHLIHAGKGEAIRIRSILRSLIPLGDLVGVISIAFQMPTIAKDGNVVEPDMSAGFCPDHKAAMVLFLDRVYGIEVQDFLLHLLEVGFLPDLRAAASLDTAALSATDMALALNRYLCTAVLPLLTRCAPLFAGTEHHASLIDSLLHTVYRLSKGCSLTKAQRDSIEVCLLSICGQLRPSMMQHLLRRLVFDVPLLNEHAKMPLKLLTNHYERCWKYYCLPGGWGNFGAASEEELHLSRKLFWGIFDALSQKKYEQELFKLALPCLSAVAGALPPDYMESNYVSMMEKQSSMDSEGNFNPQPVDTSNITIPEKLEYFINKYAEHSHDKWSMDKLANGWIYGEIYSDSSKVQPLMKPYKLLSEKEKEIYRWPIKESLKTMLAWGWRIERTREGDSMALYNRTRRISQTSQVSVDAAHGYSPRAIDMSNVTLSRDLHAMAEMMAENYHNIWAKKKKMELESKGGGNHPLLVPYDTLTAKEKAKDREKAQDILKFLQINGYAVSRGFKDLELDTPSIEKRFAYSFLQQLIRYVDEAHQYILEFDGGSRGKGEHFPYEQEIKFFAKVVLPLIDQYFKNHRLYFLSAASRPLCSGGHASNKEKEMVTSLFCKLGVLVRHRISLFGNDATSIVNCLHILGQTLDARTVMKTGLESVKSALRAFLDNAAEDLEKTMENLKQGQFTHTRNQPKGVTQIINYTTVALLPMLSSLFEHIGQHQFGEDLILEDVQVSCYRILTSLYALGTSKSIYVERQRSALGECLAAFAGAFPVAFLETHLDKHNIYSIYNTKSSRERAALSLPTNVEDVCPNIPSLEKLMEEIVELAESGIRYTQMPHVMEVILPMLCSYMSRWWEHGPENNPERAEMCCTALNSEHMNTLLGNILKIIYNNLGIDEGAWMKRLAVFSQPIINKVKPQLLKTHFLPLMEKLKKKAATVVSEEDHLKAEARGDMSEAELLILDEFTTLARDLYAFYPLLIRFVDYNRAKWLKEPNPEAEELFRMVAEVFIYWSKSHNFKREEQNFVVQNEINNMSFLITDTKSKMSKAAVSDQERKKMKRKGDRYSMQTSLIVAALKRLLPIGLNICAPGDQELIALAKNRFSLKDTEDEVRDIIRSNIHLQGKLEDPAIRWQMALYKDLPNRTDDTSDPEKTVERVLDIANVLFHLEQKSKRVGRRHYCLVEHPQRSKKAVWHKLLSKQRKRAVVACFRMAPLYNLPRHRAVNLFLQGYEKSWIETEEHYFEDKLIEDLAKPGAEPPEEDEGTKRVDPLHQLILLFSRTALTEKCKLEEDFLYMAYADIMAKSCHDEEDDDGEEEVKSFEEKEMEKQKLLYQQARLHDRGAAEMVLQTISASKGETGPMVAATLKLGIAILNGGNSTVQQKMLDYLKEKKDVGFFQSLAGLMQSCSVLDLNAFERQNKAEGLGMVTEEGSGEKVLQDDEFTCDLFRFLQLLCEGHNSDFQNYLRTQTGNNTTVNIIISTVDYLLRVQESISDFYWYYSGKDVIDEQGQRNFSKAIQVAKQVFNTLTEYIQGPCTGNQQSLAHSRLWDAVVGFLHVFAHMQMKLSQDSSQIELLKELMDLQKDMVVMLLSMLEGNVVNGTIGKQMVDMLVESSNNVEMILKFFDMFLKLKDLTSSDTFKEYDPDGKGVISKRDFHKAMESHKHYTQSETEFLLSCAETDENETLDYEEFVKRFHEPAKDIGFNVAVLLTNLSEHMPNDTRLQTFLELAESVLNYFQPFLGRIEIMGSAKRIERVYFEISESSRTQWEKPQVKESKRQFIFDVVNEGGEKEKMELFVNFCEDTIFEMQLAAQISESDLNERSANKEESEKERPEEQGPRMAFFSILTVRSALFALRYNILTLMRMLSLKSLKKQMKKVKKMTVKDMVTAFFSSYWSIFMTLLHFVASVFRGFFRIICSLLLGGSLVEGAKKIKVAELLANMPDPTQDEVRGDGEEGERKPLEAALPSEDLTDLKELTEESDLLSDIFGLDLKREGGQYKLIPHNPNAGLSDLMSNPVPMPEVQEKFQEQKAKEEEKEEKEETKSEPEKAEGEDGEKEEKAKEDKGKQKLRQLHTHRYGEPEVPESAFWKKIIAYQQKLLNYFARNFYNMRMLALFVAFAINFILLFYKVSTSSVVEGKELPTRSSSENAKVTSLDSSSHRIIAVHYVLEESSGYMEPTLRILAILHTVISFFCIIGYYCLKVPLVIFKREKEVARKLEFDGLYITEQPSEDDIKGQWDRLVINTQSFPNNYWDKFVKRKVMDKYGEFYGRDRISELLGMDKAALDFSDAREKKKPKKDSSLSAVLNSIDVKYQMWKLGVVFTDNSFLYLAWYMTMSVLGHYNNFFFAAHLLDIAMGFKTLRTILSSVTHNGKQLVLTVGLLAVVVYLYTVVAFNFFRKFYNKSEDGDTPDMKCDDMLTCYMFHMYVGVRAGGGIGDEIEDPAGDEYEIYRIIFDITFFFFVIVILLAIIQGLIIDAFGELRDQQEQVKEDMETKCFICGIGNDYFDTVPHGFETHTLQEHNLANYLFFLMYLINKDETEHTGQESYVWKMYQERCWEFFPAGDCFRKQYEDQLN", "test": "Confocal Ca2+ spark frequency dose-response in paced CPVT patient iPSC-derived cardiomyocytes (heterozygous R176Q)", "format": "cell-based", "data": [{"smiles": "CCCCNc1ccc(C(=O)OCCN(CC)CC)c(OC)c1", "note": "[EL20]", "values": [{"measurement": "IC50", "value": 82, "unit": "nM"}]}]}
